Measured values from patent US5968838A, “Antiarrhythmic peptide from venom of spider Grammostola spatulata” (priority 1998, dated 1999).
pKd: −log10 of the molar value. Read-outs that look alike come from different tables or passages of the source. Ends that are not written are not given here.

Columns and labels:
Assay type in all cases: cell-based, Rat
L-type Ca^2+ channels = assay: Depolarization (high K+) induced Ca2+ increase in GH3 cells, three consecutive depolarizations
Protocol: After loading with Fura-2, the cover slip containing the GH3 cells was mounted in a custom made holder and placed in a quartz cuvette at an angle of 20 degrees to the excitation beam. The cells on the cover slip were exposed to various test solutions and the changes in calcium ion concentration were measured according to the following method. Fluorescence emission was collected from a group of about 10^5 cells located in the excitation path. Excitation beams at 340 nm (Ex340nm) and 380 nm (Ex380 nm) were used and the fluorescence intensities at 510 nm (Em5 10 nm) were monitored. […] Fluorescence emission data was collected for times up to 600 to 1200 seconds depending on the solution added to the cells. […]

[1] = test system: stretch activated channel; assay: Fura-2 fluorescence ratio measurement of stretch activated channel activity: hypotonic cell swelling induced calcium increase (HICI) in GH3 cells
Protocol: (§1) Rat pituitary cell line GH3 was provided by Dr. S. Simasko, Department of VCAPP, Washington State University, Pullman, Wash., 99164 and the American Type Culture Collection, Rockville, Md. The cells were cultured in standard medium containing 82.5% Ham's F-10 nutrients (Gibco, Gaithersburg, Md.), 15 % heat inhibited horse serum (Gibco) and 2.5% fetal bovine serum (Gibco) at 37C in 10% CO2. Cells were fed twice per week and subcultured once per week. For Fura-2 fluorescence measurements, cells were plated on poly-L-lysine coated glass cover slips at 95% confluency, cultured under normal conditions and used between 3 to 6 days after plating.
Ca^2+ was measured on an SLM AB-2 fluorescence spectrometer (SLM Instruments, Rochester, N.Y.). Cells plated on poly-L-lysine coated glass cover slips were loaded with Fura-2 in a loading solution containing 2 micromolar Fura-2/AM (disclosed in Grynkiewicz, G. et al., (1985) Journal of Biological Chemistry 260: 3440-3450) according to the following procedure. Cells were washed twice in phosphate buffered saline (PBS) solution. Cells were then incubated in the loading solution for 30 minutes at 25C. The cells were rinsed twice with PBS and incubated in the culture medium for 30 minutes at 25C. Experiments were performed within 1 hour after loading. […]
After loading, the plated cells were exposed to various hypotonic and isotonic solutions and test solutions containing spider venom. Changes in the calcium ion concentration were measured according to the following method.
After loading with Fura-2, the cover slip containing the GH3 cells was mounted in a custom made holder and placed in a quartz cuvette at an angle of 20 degrees to the excitation beam. The cells on the cover slip were exposed to various test solutions and the changes in calcium ion concentration were measured according to the following method. Fluorescence emission was collected from a group of about 10^5 cells located in the excitation path. Excitation beams at 340 nm (Ex340nm) and 380 nm (Ex380 nm) were used and the fluorescence intensities at 510 nm (Em5 10 nm) were monitored. […] Fluorescence emission data was collected for times up to 600 to 1200 seconds depending on the solution added to the cells.
An increase in the Ca^2+ concentration caused an increase in the fluorescence at Em510 nm/Ex340nm and at the same time, a decrease at Em510/Ex380nm. The ratio of the two (R) was used to calculate the Ca^2+ concentration using the following formula: [formula] where kd is the equilibrium constant; Rmax is the ratio and Fb is the fluorescence intensity at Ex380nm when Fura-2 is saturated with Ca^2+, Rmin is the ratio and Ff is the fluorescence intensity at Ex380nm when Fura-2 is not bound by Ca^2+. […]

GH3 cells = assay: Cell Ca2+ of GH3 cells in isotonic saline (Fura-2); details: 10 μM peptide
Protocol: as §1
Ca^2+ was measured on an SLM AB-2 fluorescence spectrometer (SLM Instruments, Rochester, N.Y.). […]
After loading with Fura-2, the cover slip containing the GH3 cells was mounted in a custom made holder and placed in a quartz cuvette at an angle of 20 degrees to the excitation beam. The cells on the cover slip were exposed to various test solutions and the changes in calcium ion concentration were measured according to the following method. Fluorescence emission was collected from a group of about 10^5 cells located in the excitation path. Excitation beams at 340 nm (Ex340nm) and 380 nm (Ex380 nm) were used and the fluorescence intensities at 510 nm (Em5 10 nm) were monitored. […]

Compound: [Gd+3] [Gd^3+]
- block of depolarization induced Ca2+ increase (comparators, stated by contrast) (L-type Ca^2+ channels; GH3 cells, concentration not given): block

Compound: YCQKWMWTCDEERKCCEGLVCRLWCKKKIEW (cysteine pairing not given here) [α Mechanotoxin]
- association rate ([1]; block of HICI in GH3 cells): approximately 10^3 m^-1 s^-1
- dissociation rate ([1]; block of HICI in GH3 cells): ~0.01 s⁻¹
- pKd ([1]; block of HICI in GH3 cells, read-out: equilibrium constant): ~5.00
- block of hypotonic cell swelling induced calcium increase (HICI) ([1]; purified peptide, GH3 cells): reversibly blocks
- effect on cell Ca2+ in isotonic saline (GH3 cells): decreases cell Ca^2+ to levels seen in the absence of extracellular Ca^2+

Compound: COC(=O)C1=C(C)NC(C)=C(C(=O)OC)C1c1ccccc1[N+](=O)[O-] [nifedipine]
- block of depolarization induced Ca2+ increase (comparators, stated by contrast) (L-type Ca^2+ channels): block
